Key:
[1] = target: ARAF/MEK protein complex (Homo sapiens, UniProt P10398+Q02750); assay: Mass spectrometry-based assay for covalent labeling of ARAF; type: binding; conditions: ARAF/MEK protein complex incubated at room temperature for 2 hours with inhibitor at concentration ratio 1:10; LC-MS of denatured protein
Experimental: Covalent labeling of ARAF by compounds of the invention was measured using a mass spectrometry-based assay. The ARAF/MEK protein complex was incubated at room temperature for 2 hours with desired inhibitors at a concentration ratio of 1:10. Following incubation, proteins were denatured in 8 M urea. Formic acid was added to a final 1% and desalted over C4 resin prior to LCMS analysis. Denatured proteins (10 μg per sample) were analyzed by LC-MS via a U3000 RSLC coupled to an Orbitrap Eclipse mass spectrometer (Thermo Scientific, Waltham, MA, USA). Proteins were eluted off a ES811A (Thermo Scientific, Waltham, MA, USA) 15-cm C4 column with a 5-50% gradient of MeCN in 1% FA. MS scans (range=600-2000 m/z) were obtained in the orbitrap at 120,000 resolution with 4 microscans. The Xtract function in Freestyle software (Thermo Scientific, Waltham, MA, USA) was used to deconvolute charge states averaged across the elution window. Fractional labeling of ARAF was measured by quantitating the unlabeled ARAF and ARAF shifted by the mass expected for formation of a covalent adduct of ARAF with the compound of interest.

[2] = target: T1, ARAF/14-3-3 chimera (residues 274-606 of human ARAF fused to human 14-3-3 epsilon) (Homo sapiens, UniProt P10398+Q02750, D190N/G300S/Y301D/Y302D); assay: TR-FRET-based kinase assay: inhibition of phosphorylation of MEK1 by ARAF; type: biochemical; conditions: 250 nM MEK1(D190N), 75 nM ARAF/14-3-3 chimera, 30 minutes incubation with inhibitor, 200 μM ATP, 1 hour, HTRF
T1 construct: residues 274-606 of human ARAF, including the kinase domain and complete C-terminal region; made in house; host or cells: Sf9 insect cells (baculovirus)
T1 sequence (P10398 274-606 G300S/Y301D/Y302D limits assumed): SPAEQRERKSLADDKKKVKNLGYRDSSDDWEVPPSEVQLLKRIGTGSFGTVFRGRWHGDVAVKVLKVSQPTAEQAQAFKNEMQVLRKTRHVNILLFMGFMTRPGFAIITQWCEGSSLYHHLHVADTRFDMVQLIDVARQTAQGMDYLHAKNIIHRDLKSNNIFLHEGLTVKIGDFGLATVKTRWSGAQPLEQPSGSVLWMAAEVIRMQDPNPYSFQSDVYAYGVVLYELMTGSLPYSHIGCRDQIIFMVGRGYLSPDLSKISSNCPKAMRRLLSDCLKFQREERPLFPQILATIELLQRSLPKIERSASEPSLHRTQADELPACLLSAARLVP
T1 sequence (Q02750 whole entry D190N, the tested form may be a part): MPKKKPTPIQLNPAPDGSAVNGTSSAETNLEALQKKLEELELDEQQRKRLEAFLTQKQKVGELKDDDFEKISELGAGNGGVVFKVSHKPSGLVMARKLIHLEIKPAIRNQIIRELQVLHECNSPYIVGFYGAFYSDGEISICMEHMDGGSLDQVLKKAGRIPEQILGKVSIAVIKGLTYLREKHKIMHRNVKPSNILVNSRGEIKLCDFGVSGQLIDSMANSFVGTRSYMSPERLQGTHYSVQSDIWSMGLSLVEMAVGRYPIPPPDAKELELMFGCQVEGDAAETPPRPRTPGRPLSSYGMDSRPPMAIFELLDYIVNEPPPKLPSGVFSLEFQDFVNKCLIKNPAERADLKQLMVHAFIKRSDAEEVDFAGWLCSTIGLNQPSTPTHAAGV
Experimental: The ability of compounds of the invention to inhibit phosphorylation of MEK by ARAF was measured in a TR-FRET-based kinase assay using purified ARAF and MEK proteins. An active, chimeric ARAF protein was employed for this study. This ARAF protein included residues 274-606 of human ARAF, including the kinase domain and complete C-terminal region, fused to human 14-3-3 epsilon (ARAF/14-3-3 chimera). Amino acids corresponding to residues […] of human ARAF (with the sequence Ser-Gly-Tyr-Tyr) were mutated to Ser-Ser-Asp-Asp in this ARAF/14-3-3 chimera. […] In this assay, the ability of compounds of interest to inhibit phosphorylation of MEK1 by ARAF was measured by incubating 250 nM unphosphorylated full-length MEK1(D190N) with 75 nM ARAF/14-3-3 chimera and inhibitor of interest at a series of 12 concentrations (from 10 μM to 1.3 nM) for 30 minutes in reaction buffer (50 mM HEPES pH 7.0, 5 mM MgCl2, 1 mM MnCl2, 0.01% BSA, 2 mM TCEP, 0.1 mM NaVO4) at room temperature. Reactions were initiated by addition of 200 μM ATP and allowed to proceed for 1 hour. Reactions were quenched using detection buffer from HTRF-KinEASE kit (Cisbio). Signal was read with a PHERAstar plate reader (excitation=337 nm, emission=620 nm and 665 nm). IC50 values were determined using Graphpad Prism software from the 12 point concentration-response data using a three-parameter dose-response fit with the Hill slope constrained to −1.

ARAF/MEK protein complex, sequence (P10398 whole entry): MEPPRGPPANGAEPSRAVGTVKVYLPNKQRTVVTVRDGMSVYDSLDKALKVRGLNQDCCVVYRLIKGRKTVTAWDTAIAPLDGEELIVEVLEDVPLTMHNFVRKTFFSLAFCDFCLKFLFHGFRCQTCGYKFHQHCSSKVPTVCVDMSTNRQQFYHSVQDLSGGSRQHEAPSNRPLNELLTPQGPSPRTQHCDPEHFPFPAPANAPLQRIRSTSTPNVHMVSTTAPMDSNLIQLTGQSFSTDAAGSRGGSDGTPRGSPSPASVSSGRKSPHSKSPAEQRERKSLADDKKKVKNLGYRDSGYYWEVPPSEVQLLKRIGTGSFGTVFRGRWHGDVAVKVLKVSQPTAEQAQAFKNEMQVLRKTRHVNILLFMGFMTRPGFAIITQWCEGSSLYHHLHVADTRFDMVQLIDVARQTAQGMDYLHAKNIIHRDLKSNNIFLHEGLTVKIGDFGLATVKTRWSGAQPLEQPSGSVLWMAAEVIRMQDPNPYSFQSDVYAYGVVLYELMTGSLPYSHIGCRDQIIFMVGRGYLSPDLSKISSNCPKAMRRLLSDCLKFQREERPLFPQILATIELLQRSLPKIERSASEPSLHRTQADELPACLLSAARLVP
ARAF/MEK protein complex, sequence (Q02750 whole entry): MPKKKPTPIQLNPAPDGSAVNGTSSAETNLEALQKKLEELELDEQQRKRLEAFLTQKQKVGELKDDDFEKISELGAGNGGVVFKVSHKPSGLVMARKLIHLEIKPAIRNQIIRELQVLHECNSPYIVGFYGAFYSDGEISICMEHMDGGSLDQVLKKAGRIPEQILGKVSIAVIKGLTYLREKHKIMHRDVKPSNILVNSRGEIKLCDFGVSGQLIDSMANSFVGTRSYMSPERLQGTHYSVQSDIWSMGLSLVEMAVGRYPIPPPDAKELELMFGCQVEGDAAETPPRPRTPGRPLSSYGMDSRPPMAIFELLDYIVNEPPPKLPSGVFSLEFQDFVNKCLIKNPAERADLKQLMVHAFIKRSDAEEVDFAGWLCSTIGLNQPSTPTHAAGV

| SMILES | % labeling (covalent labeling of ARAF) [1] | IC50 [2] |
| --- | --- | --- |
| Cc1c(Cc2ccc(NC(=O)CCl)cc2F)c(=O)oc2cc(Oc3ncccn3)ccc12 [Example 2, 2-Chloro-N-(3-fluoro-4-((4-methyl-2-oxo-7-(pyrimidin-2-yloxy)-2H-chromen-3-yl)methyl)phenyl)acetamide] | 50% |  |
| C=CC(=O)Nc1cccc(Cc2c(C)c3ccc(Oc4ncccn4)cc3oc2=O)c1F [Example 3, N-(2-Fluoro-3-((4-methyl-2-oxo-7-(pyrimidin-2-yloxy)-2H-chromen-3-yl)methyl)phenyl)acrylamide] | 85% | 130 nM |
| Cc1c(Cc2cccc(NC(=O)CCl)c2F)c(=O)oc2cc(Oc3ncccn3)ccc12 [Example 4, 2-Chloro-N-(2-fluoro-3-((4-methyl-2-oxo-7-(pyrimidin-2-yloxy)-2H-chromen-3-yl)methyl)phenyl)acetamide] | 100% | 60 nM |
| C=CC(=O)Nc1ccc(CNC(=O)c2ccc(F)c(F)c2Nc2ccc(I)cc2F)cc1 [Example 5, N-(4-Acrylamidobenzyl)-3,4-difluoro-2-((2-fluoro-4-iodophenyl)amino)benzamide] | 10% |  |
| O=C(CCl)Nc1ccc(CNC(=O)c2ccc(F)c(F)c2Nc2ccc(I)cc2F)cc1 [Example 6, N-(4-(2-Chloroacetamido)benzyl)-3,4-difluoro-2-((2-fluoro-4-iodophenyl)amino)benzamide] | 40% |  |
| C=CC(=O)Nc1ccc(CNC(=O)c2cc3c(ncn3C)c(F)c2Nc2ccc(Br)cc2Cl)cc1 [Example 7, N-(4-Acrylamidobenzyl)-5-((4-bromo-2-chlorophenyl)amino)-4-fluoro-1-methyl-1H-benzo[d]imidazole-6-carboxamide] | 0% |  |
| Cn1cnc2c(F)c(Nc3ccc(Br)cc3Cl)c(C(=O)NCc3ccc(NC(=O)CCl)cc3)cc21 [Example 8, 5-((4-Bromo-2-chlorophenyl)amino)-N-(4-(2-chloroacetamido)benzyl)-4-fluoro-1-methyl-1H-benzo[d]imidazole-6-carboxamide] | 40% |  |
| C=CC(=O)Nc1ccc(Cn2cnc3c(F)c(Nc4ccc(Br)cc4Cl)c(C(=O)OC)cc32)cc1 [Example 9, Methyl 1-(4-acrylamidobenzyl)-5-((4-bromo-2-chlorophenyl)amino)-4-fluoro-1H-benzo[d]imidazole-6-carboxylate] | 0% |  |
| COC(=O)c1cc2c(ncn2Cc2ccc(NC(=O)CCl)cc2)c(F)c1Nc1ccc(Br)cc1Cl [Example 10, Methyl 5-((4-bromo-2-chlorophenyl)amino)-1-(4-(2-chloroacetamido)benzyl)-4-fluoro-1H-benzo[d]imidazole-6-carboxylate] | 75% |  |
| Cc1c(=O)n(C)c(Nc2ccc(I)cc2F)c2c(=O)n(C3CC3)c(=O)n(-c3cccc(NC(=O)CCl)c3)c12 [Example 11, 2-Chloro-N-(3-(3-cyclopropyl-5-((2-fluoro-4-iodophenyl)amino)-6,8-dimethyl-2,4,7-trioxo-3,4,6,7-tetrahydropyrido[4,3-d]pyrimidin-1(2H)-yl)phenyl)acetamide] | 100% | 490 nM |
| C=C(F)C(=O)Nc1cccc(-n2c(=O)n(C3CC3)c(=O)c3c(Nc4ccc(I)cc4F)n(C)c(=O)c(C)c32)c1 [Example 12, N-(3-(3-Cyclopropyl-5-((2-fluoro-4-iodophenyl)amino)-6,8-dimethyl-2,4,7-trioxo-3,4,6,7-tetrahydropyrido[4,3-d]pyrimidin-1(2H)-yl)phenyl)-2-fluoroacrylamide] | 100% | 210 nM |

Reference: US20260125376A1, “IRREVERSIBLE INACTIVATORS TARGETING ARAF/MEK COMPLEXES” (Dana-Farber Cancer Institute, Inc., priority 2022, published 2026)
